Measurements taken from patent US20100143428A1, “A STABLE GLUTARALDEHYDE COMPLEX” (priority 2006, published 2010).

Test system: bacteria
Experiment: Residual efficacy on bacterially contaminated surfaces, duration of effect
Type: cell-based
Conditions: "as is"
Protocol: Table 1 tabulates results of a residual efficacy test done on the product of the invention (sample number RT14) by the South African Bureau of Standards (SABS) using the European surface test method (1993), to determine the residual efficacy of the sample on bacterially contaminated surfaces.
The surfaces of stainless steel discs (2 cm^2) were seeded with a 0.1 ml bacterial suspension containing 10^7 bacterial cells/ml and thereafter dried at 37° C. for one hour. The 0.1 ml RT14 sample was dropped onto the dried disc, ensuring that the disc was totally covered. After 24 hours, 48 hours, 7 days, 14 days and 30 days respectively, the surfaces were again seeded with a bacterial suspension. After a minute contact time, the stainless steel discs were placed in conical flasks containing 10m1 of a neutralization medium to neutralize the RT14 and the flasks were shaken to dislodge the cells from the discs. Tenfold dilutions of the flask contents were placed onto sterile petri dishes. Nutrient agar was poured onto the petri dishes, mixed with contents, and incubated at 37° C. for 2 days. Colony-forming bacterial cells were counted. Untreated stainless steel discs were used as controls.

O=CCCCC=O [glutaraldehyde]
duration of effectiveness on bacteria: up to 10 hours
